Literature values, collected in US8759282B2, “Water-soluble films comprising low-viscosity alginates” (Uppsalagruppen Medical AB, priority 2005, dated 2014).
Read-outs that look alike come from different tables or passages of the source.

Columns and labels:
[1] = not given; remark: listed apart in the source

Structure (SMILES) | Solubility in water | Solubility in water (listed as ibuprofen) | pKa [1]
CC(=O)Nc1ccc(O)cc1 [Substance 1, N-Acetyl-p-aminophenol] | only slightly soluble in water |  | 
CC(=O)Oc1ccccc1C(=O)O [Substance 2, 2-Acetoxibensoesyra] | 1 g/100 g of water |  | 
CC(C)Cc1ccc(C(C)C(=O)O)cc1 (stereo not drawn) [Substance 3, p-Isobutylhydratropic acid] | slightly soluble in water | only slightly soluble in water | 
CN1CCC[C@H]1c1cccnc1 [Substance 4, (S)-3-(1-Methyl-2-pyrrolidinyl)pyridine] | liquid miscible with water |  | 8.5
